Measurements: patent US20250346643A1, “TROPOMYOSIN KINASE RECEPTOR (TRK) LIGANDS AS THERAPEUTICS TO SUPPORT LIVER REGENERATION” (Vanderbilt University, priority 2024, published 2025)

Tests used:
CCND1 and PCNA = assay: Immunoblotting of mpPHH for CCND1 and PCNA; format: cell-based, human; conditions: mpPHHs, NTF3
Description: Mouse passaged primary human hepatocytes. Mouse-passaged primary human hepatocytes (mpPHHs) were collected as previously described (Michailidis et al., Proc Natl Acad Sci USA. 2020; 117(3): 1678-1688) and cultured in hepatocyte culture media (CC-3198, Lonza, Basel, Switzerland) in collagen-coated chamber slides. Three days before treatment, mpPHH were incubated in William's E media (with L-glutamine). […] 5-15 images per treatment per experiment were randomly taken and EdU positive nuclei quantified.
Immunoblotting. […] Protein concentration of supernatants was determined by Direct Detect Spectrophotometer (MilliporeSigma, Burlington, MA). […] The protein concentration of supernatants was determined by a Direct Detect® spectrophotometer (MilliporeSigma, Burlington, MA). For immunoblot analysis, 10 to 50 μg of protein diluted in […] sample buffer (Invitrogen, Waltham, MA) were analyzed per SDS-polyacrylamide gel electrophoresis (NuPAGE™, Invitrogen, Waltham, MA) using Mops buffer or MES buffer (Invitrogen, Waltham, MA). […] Semi-quantitative band densitometry was performed using ImageJ software (version 1.53).

AML12 cells = assay: Cell proliferation assay (CellTiter-Glo) in AML12 cells; format: cell-based, mouse; conditions: NTF3 20 ng/ml, AML12 (FIG. 9E-F)
Description: Cell lines. Human HepG2 (ATCC HB-8065) were maintained in MEM media with 10% FBS and the mouse hepatocyte cell line AML12 (ATCC, Manassas, VA; CRL-2254) in DMEM/F12 media supplemented with dexamethasone (40 ng/ml) and Insulin-Transferrin-Selenium (Gibco, Waltham, MA; 41400045), containing 10% FBS and 1% penicillin and streptomycin. JS1 (RRID: CVCL_C7PL), LX2 (RRID: CVCL_5792, MilliporeSigma, Burlington, MA; SCC064) and TWNT4 (RRID: CVCL_W296) cells were cultured in DMEM supplemented with 10% FBS. 293T cells (ATCC, Manassas, VA; CRL-3216) were cultured in DMEM supplemented with 10% FBS.
Cell proliferation assays. Primary mouse hepatocytes, HepG2 or AML 12 cells were grown in opaque-walled 96-well plates. NTF3 (final concentration 20 ng/ml) (STEMCELL Technologies, Vancouver, Canada; cat. 78074) and/or Loxo-195 (final concentration 5 nM) (Selleckchem, Houston, TX; S8636) were added into complete growth media without L-glutamine. Primary mouse hepatocytes were also grown in serum-free William's E media without supplements. Cells were analyzed by CellTiter-Glo® (Promega G7570, Madison, WI) which detects the number of viable cells on day 0 to day 5 by on detection systems GloMax® (Promega) or Bioteck Synergy H1 (Agilent, Santa Clara, CA). Mouse recombinant HGF (Abcam, Cambridge, UK; ab281797) was added to cell culture media at a final concentration 5 ng/ml. […]

[1] = tested on: P-TRKA Tyr674/675, P-TRKB Tyr706/707; assay: Western blot of phosphorylated TRK in HepG2 cell lysates; format: cell-based, human; conditions: HepG2, NTF3 (FIG. 9G-H)
Description: Human HepG2 and mouse AML12 cells were grown in 6-well plates. […] Lyophilized NTF3 was solubilized with sterile filtered PBS supplemented with 0.1% BSA, aliquoted and stored at −80° C. until use. […] Cell lysates were sonicated and centrifuged for 10 min at 18,800×g. Protein concentration of supernatants were determined by Direct Detect Spectrophotometer (MilliporeSigma, Burlington, MA).
For immunoblot analysis, 30-50 μg of protein diluted in LSD sample buffer (Invitrogen, Waltham, MA) were analyzed per SDS-PAGE (NuPAGE™, Invitrogen, Waltham, MA) using MOPS buffer or MES buffer (Invitrogen, Waltham, MA). Gels were stained with Coomassie (Bio-Safe Coomassie G-250 Stain, Bio-Rad, Hercules, CA) and transferred onto PVDF membranes using semi-dry blotting (Trans-Blot SD, Bio-Rad, Hercules, CA). Images were visualized on an Amersham™ Imager 680 (Cytiva, Marlborough, MA).

## NTF3: neurotrophin-3, recombinant protein; HSC-derived hepatocyte mitogen, ligand of TRKA, TRKB, TRKC
CCND1 and PCNA
  CCND1 and PCNA (immunoblotting): induced CCND1 and PCNA
AML12 cells
  cell proliferation: greatly stimulated cell proliferation
[1]
  TRK phosphorylation (P-TRKA Tyr674/675, P-TRKB Tyr706/707): Increased TRK phosphorylation
